Source: patent US7297523B2, “Human elongase genes and uses thereof” (Xenon Pharmaceuticals Inc., priority 2000, dated 2007)

How the values were obtained:
Leukocytes [1] = experiment: Conversion of 18:2n-6 into 20:2n-6 in leukocytes from STZ-induced diabetic rats; format: in vivo, rat; settings: for Conversion of 18:2n-6 into 20:2n-6: leukocytes incubated for 24 h, mean ± S.D. of 6 rats
D6D = D6D activity in liver microsomes from STZ-induced diabetic rats; format: in vivo, rat; settings: compared to control
Description: (§1) The desaturase and elongase enzyme activities in liver microsomes from streptozotocin (STZ)-induced diabetic rats was assayed at 2 and 7 weeks post-induction. Table 1 indicates the decrease in activities compared to a control, observed during the course of the experiment. An equivalent decrease in elongation activity in STZ-induced diabetic rats has been previously reported (Suneja et al., 1990, Biochim. Biophys. Acta, 1042: 81-85).

Elongase = Elongase activity in liver microsomes from STZ-induced diabetic rats; format: in vivo, rat; settings: compared to control
Description: as §1

Leukocytes [2] = experiment: Conversion of 18:3n-6 into 20:3n-6 in leukocytes from STZ-induced diabetic rats; format: in vivo, rat
D5D = D5D activity in liver microsomes from STZ-induced diabetic rats; format: in vivo, rat; settings: compared to control
Description: as §1

18:3n-6 = experiment: Elongation of [1-14C]18:3n-6 in yeast expressing human elongases (RP-HPLC); settings: for Percent Elongation of 18:3n-6 to 20:3: product 20:3n-6; for Percent Elongation of 18:3n-6 to 22:3: product 22:3n-6
Description: (§2) For the expression of ELG1, ELG2, ELG3, ELG4, ELG5, ELG6 or ELG7 the yeast were transformed with pTh1009.1, pTh1014.1, pTh1015.1, pTh1021.1, pTh1018.1, pTh1041.1 or pTh1044.1, respectively. For the expression of ELG1/V5-His, ELG2/V5-His, ELG3/V5-His, ELG4/V5-His, ELG5/V5-His, ELG6/V5 -His or ELG7/V5-His the yeast were transformed with pTh1009.2, pTh1014.2, pTh1017.1, pTh1021.2, pTh1019.1, pTh1042.1 or pTh1045.1, respectively. Recombinant yeast cells were selected on SC-U medium.
(§3) Transformed yeast (approximately 3.2×10^6 cells/ml; O.D.600 0.4) were incubated in a 125 ml Erlenmeyer containing 10 ml of SC-U medium with 1% raffinose, 1% tergitol and 25 μM of the lithium salts of either [1-^14C]18:3n-3 (1 μCi), [1-^14C]18:3n-6 (1 μCi), [1-^14C]20:4n-6 (2 μCi), or [1-^14C]20:5n-3 (2 μCi). After 4 h incubation in an orbital incubator at 270 rpm and 30° C., cells reached the log phase and the transgene, expression was induced with galactose 30° C., cells reached the log phase and the transgene expression was induced with galactose (2% final concentration). The yeast were incubated for an additional 19 h and then harvested by centrifugation at 5000×g for 10 minutes at 4° C.
(§4) Cells were washed with Tris-HCl buffer (100 mM, pH 8.0) containing 0.1% BSA and total lipids were extracted as described below. The radioactivity from aliquots of the incubation medium, supernatant and cells was determined by liquid scintillation counting using a LS6500-Scintillation System (Beckman).
(§5) Alternatively, cells were resuspended in 1.5 ml of water and saponified with 2 ml of 10% KOH in ethanol. The total lipid extracts or the free fatty acids from the saponified samples were methylated using boron trifluoride in methanol at 90° C. for 30 min. The resultant methyl esters (FAME) were analyzed as described below.
(§6) Analyses of radiolabelled FAME were carried out on a Hewlett Packard 1090, series II chromatograph equipped with a diode array detector set at 205 nm, a radioisotope detector (model 171, Beckman, CA) with a solid scintillation cartridge (97% efficiency for ^14C-detection) and a reverse phase ODS (C-18) Beckman column (250 mm×4.6 mm i.d.; 5 μm particle size) attached to a pre-column with a μBondapak C-18 (Beckman) insert. FAME were separated isocratically with acetonitrile/water (95.5 v/v) at a flow rate of 1 ml/min and were identified by comparison with authentic standards. Alternatively, the eluted FAME were collected and the solvent evaporated. FAME were re-dissolved in hexane for further analysis by gas chromatography.
20:5n-3 = experiment: Elongation of [1-14C]20:5n-3 in yeast expressing human elongases (RP-HPLC); settings: untagged elongase; 25 μM substrate; product 22:5n-3
Description: as §2, §3, §4
Alternatively, cells were resuspended in 1.5 ml of water and saponified with 2 ml of 10% KOH in ethanol. The total lipid extracts or the free fatty acids from the saponified samples were methylated using boron trifluoride in methanol at 90° C. for 30 min. The resultant methyl esters (FAME) were analyzed as described below. […]
20:4n-6 = experiment: Elongation of [1-14C]20:4n-6 in yeast expressing human elongases (RP-HPLC); settings: untagged elongase, 25 μM substrate
Description: as §2, §3, §4, §5, §6
18:3n-3 = experiment: Elongation of [1-14C]18:3n-3 in yeast expressing human elongases (RP-HPLC); settings: untagged elongase; 25 μM substrate; product 20:3n-3
Description: as §2, §3, §4, §5, §6

[3] = untagged elongase, 25 μM substrate

CN(N=O)C(=O)N[C@H]1C(O)O[C@H](CO)[C@@H](O)[C@@H]1O (stereo partly drawn) [STZ, 2-desoxy-2-methylnitrosoamino carbonyl amino-D-glucopyranose]
Conversion of 18:2n-6 into 20:2n-6 (Leukocytes [1]; 2 weeks post-induction): 322 ± 119 pmol of 20:2n-6 produced/mg cellular protein
Conversion of 18:2n-6 into 20:2n-6 (Leukocytes [1]; 7 weeks post-induction): 147 ± 22 pmol of 20:2n-6 produced/mg cellular protein
changes in the elongation of 18:2n-6 to 20:2n-6 (Leukocytes [1]; leukocytes from animals sacrificed 7 weeks after the STZ treatment): no significant changes
reduction in the elongation of 18:2n-6 to 20:2n-6 (Leukocytes [1]; leukocytes obtained 2 weeks after the STZ injection): approximately 50%
% Decrease of D6D activity (18:2n-6 → 18:3n-6) (D6D; 2 weeks post-induction): 28%
% Decrease of D6D activity (18:2n-6 → 18:3n-6) (D6D; 7 weeks post-induction): 33%
% Decrease of Elongase activity (18:3n-6 → 20:3n-6) (Elongase; 2 weeks post-induction): 46%
% Decrease of Elongase activity (18:3n-6 → 20:3n-6) (Elongase; 7 weeks post-induction): 43%
Conversion of 18:3n-6 into 20:3n-6 (Leukocytes [2]; 2 weeks post-induction, incubation time 0 h): 0 pmol of 20:3n-6 produced/mg cellular protein
Conversion of 18:3n-6 into 20:3n-6 (Leukocytes [2]; 2 weeks post-induction, incubation time 0.16 h, mean ± S.D. of 6 rats): 50 ± 8 pmol of 20:3n-6 produced/mg cellular protein
Conversion of 18:3n-6 into 20:3n-6 (Leukocytes [2]; 2 weeks post-induction, incubation time 0.5 h, mean ± S.D. of 6 rats): 115 ± 26 pmol of 20:3n-6 produced/mg cellular protein
Conversion of 18:3n-6 into 20:3n-6 (Leukocytes [2]; 2 weeks post-induction, incubation time 1 h, mean ± S.D. of 6 rats): 288 ± 23 pmol of 20:3n-6 produced/mg cellular protein
Conversion of 18:3n-6 into 20:3n-6 (Leukocytes [2]; 7 weeks post-induction, incubation time 0 h): 0 pmol of 20:3n-6 produced/mg cellular protein
Conversion of 18:3n-6 into 20:3n-6 (Leukocytes [2]; 7 weeks post-induction, incubation time 0.16 h, mean ± S.D. of 6 rats): 37 ± 9 pmol of 20:3n-6 produced/mg cellular protein
Conversion of 18:3n-6 into 20:3n-6 (Leukocytes [2]; 7 weeks post-induction, incubation time 0.5 h, mean ± S.D. of 6 rats): 112 ± 10 pmol of 20:3n-6 produced/mg cellular protein
Conversion of 18:3n-6 into 20:3n-6 (Leukocytes [2]; 7 weeks post-induction, incubation time 1 h, mean ± S.D. of 6 rats): 190 ± 92 pmol of 20:3n-6 produced/mg cellular protein
Conversion of 18:3n-6 into 20:3n-6 (Leukocytes [2]; 7 weeks post-induction, incubation time 24 h, mean ± S.D. of 6 rats): 1008 ± 98 pmol of 20:3n-6 produced/mg cellular protein
activity of the elongation system (18:3n-6 into 20:3n-6) (Leukocytes [2]; STZ group versus control, regardless of the time after the last I.P. STZ injection): significant increase
% Decrease of D5D activity (20:3n-6 → 20:4n-6) (D5D; 2 weeks post-induction): 33%
% Decrease of D5D activity (20:3n-6 → 20:4n-6) (D5D; 7 weeks post-induction): 41%

B1: ELG2: human PUFA elongase expressed in yeast from plasmid pTh1014.1 (protein, UniProt Q9NYP7 1-299, looked up)
Very long chain fatty acid …: MEHFDASLSTYFKALLGPRDTRVKGWFLLDNYIPTFICSVIYLLIVWLGPKYMRNKQPFSCRGILVVYNLGLTLLSLYMFCELVTGVWEGKYNFFCQGTRTAGESDMKIIRVLWWYYFSKLIEFMDTFFFILRKNNHQITVLHVYHHASMLNIWWFVMNWVPCGHSYFGATLNSFIHVLMYSYYGLSSVPSMRPYLWWKKYITQGQLLQFVLTIIQTSCGVIWPCTFPLGWLYFQIGYMISLIALFTNFYIQTYNKKGASRRKDHLKDHQNGSMAAVNGHTNSFSPLENNVKPRKLRKD
Percent Elongation of 18:3n-6 to 20:3 (18:3n-6; V5-His tagged elongase): 73%
Percent Elongation of 18:3n-6 to 22:3 (18:3n-6; V5-His tagged elongase): 11%
Percent Elongation of 18:3n-6 to 20:3 (18:3n-6; [3]): 62%
Percent Elongation of 18:3n-6 to 22:3 (18:3n-6; [3]): 3%
Percent Elongation of 20:5n-3 to 22:5 (20:5n-3): 59%
Percent Elongation of 20:4n-6 to 22:4 (20:4n-6; product 22:4n-6): 39%
Percent Elongation of 20:4n-6 to 24:4 (20:4n-6; product 24:4n-6): 1%
Percent Elongation of 18:3n-3 to 20:3 (18:3n-3): 16%
